In patent US20250382588A1, “CHIMERIC AAV AND USES THEREOF” (priority 2023, published 2025):
“Also recorded” adds a separate entry of the source.

Legend:
[1] = test system: parkinsonian macaque model (MPP+); conditions: clinical; cited from earlier work
[2] = test system: parkinsonian macaque model (MPP+); test: Parkinsonian symptoms in MPP+ macaques (PD score, locomotion, EMG tremor, motor skill, dyskinesia score)
Experimental: Parkinsonian conditions in macaque monkeys were established by unilaterally injecting 1-Methyl-4-phenylpyridinium (MPP+) into the SNc (FIG. 14). […] Drug injections were performed in five sites covering the whole SNc. A total volume of 10 ul MPP+ was injected into SNc at a speed of 50 nL/min. Monkeys were continuously monitored by veterinarians after lesion.
Two experienced observers blindly evaluated parkinsonian symptoms of the monkeys three days per week throughout the observation periods. Parkinsonian symptoms were quantified according to the well-established Kurlan scale (Part I. Parkinsonian features), a widely used scale to quantify PD symptoms in old world monkeys. A score of zero indicates a normal monkey, whereas a maximum score of 29 indicates an animal with severe PD symptoms. For separate behavioral categories, scoring of the upper limb and the lower limb were added together. Additionally, action or intention tremors and resting tremors were added together.
Two experienced observers blindly evaluated dyskinesia symptoms of the monkeys three days per week throughout the observation periods. Dyskinesia score criteria were: 0: Absent. 1: Mild, fleeting, present <30% of the observation period. 2: Moderate, not interfering with normal activity, present >30% of the observation period. 3: Marked, at times interfering with normal activity; present <70% of the observation period.4: Severe, continuous, replacing normal activity, present >70% of the observation.
For parkinsonian monkeys, DCZ (Deschloroclozapine, 0.3 mg/kg, MCE) was administered via intramuscular injection. After DCZ was successfully infused, monkeys were immediately transferred to the observation cage for video recording. […] For long-term DCZ treatment, parkinsonian monkeys were given DCZ at a dose of 0.3 mg/kg every other day via intramuscular injection. […] One month of washout was allowed before administration of DCZ for a 2 months treatment.
A grasp-to-eat/hand-to-mouth movement test was conducted as an indication of motor skills in monkeys. Monkeys were first trained to sit in a primate chair with the healthy hand restricted. Monkeys were then trained to grasp food (a piece of apple, ˜1 cm3) using the MPP+-affected hand from the experimenter. The task contained three blocks, with 20-minute intervals between different blocks. Each block included ten continuous trials. Trials were defined as successful when monkeys were able to bring food to their mouth within a minute.
During video recording, a top (x/y) and a side (x/z) camera were used to record the observation cage. The VigiePrimate system (Viewpoint) was used to analyze the subject's activity and extract movement data from the recorded videos. The tracking data were synchronously sampled at 25 Hz for both top view and side view, and then combined to generate one dataset representing the 3D space. The tracking data were normalized to 0-100 cm for all x-, y-, and z-axes, of which x represents right to left, y represents front to back, and z represents bottom to top.
Customized surface EMG electrodes were used for EMG recordings.

## N[C@@H](Cc1ccc(O)c(O)c1)C(=O)O [L-Dopa, levodopa]
[1]
  standard efficacy window: 6 h
[2]; long-term treatment
  dyskinesia-like behaviors (dyskinesia score): evident; also recorded: pronounced
[2]; one month washout
  effect of 4 months prior L-Dopa administration on DCZ treatment: did not affect the efficacy of DCZ treatment or the absence of dyskinesia
